Results as given in patent US4994270A, “A54145 antibiotics and process for their production” (Eli Lilly and Company, priority 1988, dated 1991).
Converted amounts (≈) assume the structure as drawn. “And” between values parts separate entries of the source, which are not always exact repeats. Identical values can stand only once. Positions of bridges follow the written chain, without caps; N, C: chain ends. Non-standard residues stand in square brackets, D forms with d. Residues, ends and D or L forms follow the SMILES beside them. ξ: configuration not given here. *: point of attachment. ξAsp(3ξ-OMe) = COC(C(=O)O)C(N)C(=O)O; ξAsn(3ξ-OH) = NC(=O)C(O)C(N)C(=O)O; X2 = CC(C)CCCCCCC(=O)*; Sar = CNCC(=O)O

Experiments:
[1] = system: Staphylococcus aureus S13E; assay: MIC, conventional agar-dilution assay; format: cell-based
Experimental: (§1) The A54145 antibiotics inhibit the growth of pathogenic bacteria. […] The MIC's in Table IX were determined by conventional agar-dilution assays.

[2] = system: Staphylococcus aureus V41; assay: MIC, conventional agar-dilution assay; format: cell-based
Experimental: as §1

[3] = system: Staphylococcus aureus X1.1; assay: MIC, conventional agar-dilution assay; format: cell-based
Experimental: as §1

[4] = system: Staphylococcus aureus X400; assay: MIC, conventional agar-dilution assay; format: cell-based
Experimental: as §1

[5] = system: Staphylococcus epidermidis 222; assay: MIC, conventional agar-dilution assay; format: cell-based
Experimental: as §1

[6] = system: Staphylococcus epidermidis EPI1; assay: MIC, conventional agar-dilution assay; format: cell-based
Experimental: as §1

[7] = system: Streptococcus pneumoniae Park1; assay: MIC, conventional agar-dilution assay; format: cell-based
Experimental: as §1

[8] = system: Streptococcus pyogenes C203; assay: MIC, conventional agar-dilution assay; format: cell-based
Experimental: as §1

[9] = system: Streptococcus sp. group 2041; assay: MIC, conventional agar-dilution assay; format: cell-based
Experimental: as §1

[10] = system: Streptococcus sp. group D X66; assay: MIC, conventional agar-dilution assay; format: cell-based
Experimental: as §1

[11] = system: Staphylococcus aureus 209P; assay: Stimulation of in vitro activity by calcium ions; format: cell-based; set-up: dose or concentration left out as unconfirmed
Experimental: (§2) The in vitro activity of the A54145 antibiotics is stimulated by the presence of calcium ions. For example, the in vitro activity of A54145A against Staphylococcus aureus 209P and Streptococcus faecalis ATCC 29212 was stimulated about 100 times by the presence of Ca^++ ([…]).

[12] = system: Streptococcus faecalis ATCC 29212; assay: Stimulation of in vitro activity by calcium ions; format: cell-based; set-up: dose or concentration left out as unconfirmed
Experimental: as §2

[13] = system: Staphylococcus aureus; assay: ED50 in experimentally infected mice; format: in vivo; conditions: mice infected with Staphylococcus aureus; subcutaneous; doses given 1 and 4 hours postinfection
Experimental: (§3) The A54145 antibiotics have shown in vivo antimicrobial activity against experimentally-induced infections in laboratory animals. When two doses of test compound were administered to mice experimentally infected with Streptococcus pyogenes or Staphylococcus aureus, the activity observed was measured as an ED50 value [effective dose in mg/kg to protect 50% of the test animals: see Warren Wick, et al. J. Bacteriol. 81 233-235 (1961)].

[14] = system: Streptococcus pyogenes; assay: ED50 in experimentally infected mice; format: in vivo; conditions: mice infected with Streptococcus pyogenes, subcutaneous
Experimental: as §3

[15] = Chick growth performance test (weight gain, feed efficiency); format: in vivo, chicks
From the text: In the tests, the compounds were given to chicks at the concentrations indicated in the feed. The test period was the 7-day period from 7-14 days of age of the birds. Growth performance (weight gain, feed consumption and feed efficiency) was compared to that of contemporary controls.

[16] = Growth performance of starter pigs; format: in vivo
From the text: In this test, a total of 145 barrows and gilts, averaging 22 pounds starting weight, were used to determine the effect of various dosages of A54145 on the growth performance of starter pigs. The pigs were fed an 18% crude protein corn-soy diet and were housed in a completely enclosed building with wire mesh floors elevated over a flush floor. The effect of the treatments on performance was studied for a 28-day trial period.

[17] = Table XII, 20 g/ton, relative to the control mean

Structure (SMILES): CCC(C)C1NC(=O)C(CCC(=O)O)NC(=O)C(CC(N)=O)NC(=O)CNC(=O)C(C(OC)C(=O)O)NC(=O)C(CCCCN)NC(=O)C(CC(=O)O)NC(=O)C(C)NC(=O)CN(C)C(=O)C(NC(=O)C(NC(=O)C(CCC(=O)O)NC(=O)C(Cc2c[nH]c3ccccc23)NC(=O)CCCCCCC(C)C)C(O)C(N)=O)C(C)OC1=O (stereo not drawn) [Component A54145A] (X2-WE[ξAsn(3ξ-OH)]T[Sar]ADK[ξAsp(3ξ-OMe)]GNEI; ester 4-C; configuration not given here)
- MIC [1]: 8 mg/L (≈ 4.86 µM)
- MIC [2]: 8 mg/L (≈ 4.86 µM)
- MIC [3]: 8 mg/L (≈ 4.86 µM)
- MIC [4]: 8 mg/L (≈ 4.86 µM)
- MIC [5]: 4 mg/L (≈ 2.43 µM)
- MIC [6]: 4 mg/L (≈ 2.43 µM)
- MIC [7]: 8 mg/L (≈ 4.86 µM)
- MIC [8]: 2 mg/L (≈ 1.22 µM)
- MIC [9]: 64 mg/L (≈ 38.9 µM)
- MIC [10]: 16 mg/L (≈ 9.73 µM)
- stimulation of in vitro activity by Ca++ [11]: about 100 times
- stimulation of in vitro activity by Ca++ [12]: about 100 times
- ED50 Value [13]: 3.3 mg/kg × 2
- ED50 Value ([14]; doses given 1 and 4 hours postinfection): 2.4 mg/kg × 2
- ED50 Value, individual values of two tests ([14]; individual tests behind the average): 1.6 mg/kg × 2 and 3.1 mg/kg × 2
- Feed/Gain Ratio ([15]; Table XII, 20 g/ton): 1.546
- Weight Gain Amt. ([15]; Table XII, 20 g/ton in feed, chicks 7-14 days of age): 168 g
- Feed/Gain % Impr. [15, 17]: 11.0%
- Weight Gain % Impr. [15, 17]: 26.3%
- weight gains in chickens (in words) ([15]; chickens): increased weight gains
- feed/gain ratio in pigs (in words) [16]: improved the feed/gain ratio
